Measured values published in patent US10744128B2, “6-(5-membered heteroaryl)isoquinolin-3-yl-(5-membered heteroaryl) carboxamides and preparation and use thereof” (Samumed, LLC, priority 2017, dated 2020).
Read-outs that look alike come from different tables or passages of the source.

How the values were obtained:
recombinant GSK3β kinase = recombinant GSK3β kinase (Homo sapiens (Human), UniProt P49841); experiment: GSK3β kinase assay (Ser/Thr 09 peptide Z-lyte, FRET); type: biochemical
IL-6 = IL-6 inhibition in LPS-stimulated human peripheral blood mononuclear cells (HTRF); type: cell-based; settings: Homo sapiens, PBMC; for EC50: huPBMCs, LPS 50 ng/mL, 22 hours, IL-6 HTRF; for inhibition at 10 µM: read-out: percent inhibition at 10 μM
Description: Fresh Normal PB MNC (Catalog # PB001, AllCells, Alameda, Calif.) were shipped overnight at 4° C. and resuspended in Roswell Park Memorial Institute (RPMI) 1640 Medium, with GlutaMAX Supplement (Catalog #61870127, ThermoFisher Scientific, Waltham, Mass.) supplemented with 1% Penicillin-Streptomycin (Catalog #15140163, ThermoFisher Scientific, Waltham, Mass.) and 1% fetal bovine serum (FBS) (Catalog #16140089, ThermoFisher Scientific, Waltham, Mass.) assay media.
Fresh normal human peripheral blood mononuclear cells (huPBMCs) were resuspended in 1% FBS-RPMI assay media with 1% Penicillin-Streptomycin 1% to a cell concentration of 1×10e6 cells/mL. […] 50 ng/mL of Lipopolysaccharides from Escherichia coli 0111:B4 (Catalog #L5293-2ML, Sigma-Aldrich, St. Louis, Mo.) was added after 2 hours and cells were incubated for another 22 hours at 37° C.-5% CO2. After 22 hour incubation, a mixture of anti-IL6 XL665 and anti-IL-6 Cryptate diluted in reconstitution buffer (Catalog #62IL6PEC, Cisbio Inc., Bedford, Mass.) was added to each well. Following incubation for 3 hours at room temperature, Homogeneous Time-Resolved Fluorescence (HTRF) was measured using the Envision (Perkin Elmer, Shelton, Conn.) at 665 nm and […]. The ratio of fluorescence at 665 nm to 620 nm was used as a readout for IL-6 quantification. All samples were processed in duplicate. Readings were normalized to DMSO treated cells and normalized activities were utilized for EC50 calculations. EC50 was determined using software generated by Dotmatics Limited (Windhill Bishops Stortford Herts, UK) using the Levenberg-Marquardt 4 parameter fitting procedure with finite different gradients.

[1] = target: recombinant DYRK1A kinase (Homo sapiens (Human), UniProt Q13627); experiment: DYRK1A kinase assay (Ser/Thr 18 peptide Z-lyte, FRET)
Description: Each compound was dissolved in DMSO as a 10 mM stock and used to prepare compound source plates.
This is a non-radioactive assay using fluorescence resonance energy transfer (FRET) between coumarin and fluorescein to detect kinase activity which is represented as a ratio of coumarin emission/fluorescein emission.
The mixture was allowed to incubate with the representative compounds for one hour at room temperature. All reactions were performed in duplicate. Unphosphorylated (“0% Control”) and phosphorylated (“100% control”) forms of Ser/Thr 18 served as control reactions. Additionally, an 11-point dose-response curve of Staurosporine (1 uM top) was run to serve as a positive compound control.
After incubation, Development Reagent A was diluted in Development Buffer then added to the reaction and allowed to further incubate for one hour at room temperature.
Dose-response curves were generated and inhibitory concentration (IC50) values were calculated using non-linear regression curve fit in the Dotmatics' Studies Software (Bishops Stortford, UK).

[2] = test system: SW480 colon carcinoma cells; experiment: Cell viability assay (CellTiter-Glo) in SW480 cells; type: cell-based, human; settings: Homo sapiens, 96 h, four days
Description: SW480 colon carcinoma cells were transduced with a lentiviral vector expressing luciferase with a human Sp5 promoter consisting of a sequence of eight TCF/LEF binding sites. SW480 cells stably expressing the Sp5-Luc reporter gene and a hygromycin resistance gene were selected by treatment with 150 µg/mL of hygromycin for 7 days. These stably transduced SW480 cells were expanded in cell culture and used for all further screening activities.
For the Cell Viability Assays, the cells were plated at 2,000 cells/well in 384-well plates with a DMEM medium containing 1% fetal bovine serum, and 1% Penicillin-Streptomycin and incubated for […] at 37° C. and 5% CO2. Eight replicates of DMSO-treated cells served as controls and cells treated with compound were performed in duplicate.
After incubation, 10 μL of CellTiter-Glo (Promega) was added to each well allowed to incubate for approximately 12 minutes. This reagent “results in cell lysis and generation of a luminescent signal proportional to the amount of ATP present. The amount of ATP is directly proportional to the number of cells present in culture, in agreement with previous reports. The CellTiter-Glo® Assay generates a “glow-type” luminescent signal, produced by the luciferase reaction (Promega.com)”.

[3] = test system: Wnt-responsive promoter (Sp5-Luc reporter) in SW480 colon carcinoma cells; experiment: Sp5-Luc reporter gene screening assay for Wnt activity in SW480 cells; type: cell-based, human; settings: Homo sapiens, 36 to 48 hours, luminescence
Excerpt: The screening assay for Wnt activity is described as follows. Reporter cell lines can be generated by stably transducing cancer cell lines (e.g., colon cancer) or primary cells (e.g., IEC-6 intestinal cells) with a lentiviral construct that includes a Wnt-responsive promoter driving expression of the firefly luciferase gene.
SW480 colon carcinoma cells were transduced with a lentiviral vector expressing luciferase with a human Sp5 promoter consisting of a sequence of eight TCF/LEF binding sites. SW480 cells stably expressing the Sp5-Luc reporter gene and a hygromycin resistance gene were selected by treatment with 150 μg/mL of hygromycin for 7 days. These stably transduced SW480 cells were expanded in cell culture and used for all further screening activities. […] For Sp5-Luc reporter gene assays, the cells were plated at 4,000 cells/well in 384-well plates with a DMEM medium containing 1% fetal bovine serum, and 1% Penicillin-Streptomycin and incubated for 36 to 48 hours at 37° C. and 5% CO2. Following incubation, 15 μl of BriteLite Plus luminescence reagent (Perkin Elmer) was added to each well of the 384-well assay plates. The plates were placed on an orbital shaker for 2 min and then luminescence was quantified using the Envision (Perkin Elmer) plate reader. Readings were normalized to DMSO only treated cells, and normalized activities were utilized for EC50 calculations using the dose-response log (inhibitor) vs. response −variable slope (four parameters) nonlinear regression feature available in GraphPad Prism 5.0 (or Dotmatics).

[4] = test system: primary human fibroblasts derived from IPF patients (LL29 cells), α-smooth muscle actin; experiment: Inhibition of fibrotic process: αSMA in TGF-β1 treated LL29 fibroblasts; type: cell-based; settings: Homo sapiens, Fibroblast; for EC50: 96 h, LL29 cells, TGF-β1 20 ng/mL, 4 days, % cells positive for αSMA
Description: Representative compounds were screened using primary human fibroblasts (derived from IPF patients) treated with TGF-β1 to determine their ability to inhibit the fibrotic process.
LL29 cells were plated at 1,500 cells/well in 70 μL/well F12 medium supplemented with 1% Fetal Bovine Serum. […] Wells treated with TGF-β1 and containing DMSO were used as positive control, and cells with only DMSO were negative control. […] Following incubation for 4 days, SYTOX green nucleic acid stain (Life Technologies [Thermo Fisher Scientific]) was added to the wells at a final concentration of 1 μM and incubated at room temperature for 30 min.

[5] = GSK3β kinase, 46 μM ATP, one hour, method calls values IC50
[6] = DYRK1A kinase, 30 μM ATP, one hour, method calls values IC50

recombinant GSK3β kinase, sequence (P49841 whole entry): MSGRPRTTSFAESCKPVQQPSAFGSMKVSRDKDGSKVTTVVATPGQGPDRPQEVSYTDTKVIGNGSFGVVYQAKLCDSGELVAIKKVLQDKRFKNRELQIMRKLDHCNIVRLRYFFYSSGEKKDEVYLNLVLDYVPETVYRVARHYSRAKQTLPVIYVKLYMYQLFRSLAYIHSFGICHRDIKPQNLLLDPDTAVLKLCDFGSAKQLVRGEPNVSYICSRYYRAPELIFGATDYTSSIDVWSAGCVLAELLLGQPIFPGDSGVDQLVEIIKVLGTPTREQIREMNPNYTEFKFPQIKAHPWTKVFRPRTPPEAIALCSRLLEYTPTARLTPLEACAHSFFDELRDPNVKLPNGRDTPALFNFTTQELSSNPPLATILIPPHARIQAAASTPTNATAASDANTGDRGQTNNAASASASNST

EC50 (recombinant GSK3β kinase; [5])	EC50 (IL-6)	EC50 [1, 6]	EC50 [2]	EC50 [3]	EC50 (recombinant GSK3β kinase)	EC50 [1]	Structure (SMILES)	EC50 [4]	inhibition at 10 µM (IL-6)	inhibition at 10 µM ([4]; read-out: percent inhibition at 10 μM)
1660 nM	356 nM	1 nM	94 nM	37 nM			Cn1cncc1-c1ccc2cnc(NC(=O)c3cnn(C4CC4)c3)cc2c1 [Compound 44, 1-Cyclopropyl-N-(6-(1-methyl-1H-imidazol-5-yl)isoquinolin-3-yl)-1H-pyrazole-4-carboxamide]	115 nM		
395 nM	1100 nM	6 nM	664 nM	230 nM			Cn1cc(-c2ccc3cnc(NC(=O)c4cn(C5CCN(CCF)CC5)nn4)cc3c2)nn1 [Compound 34, 1-(1-(2-Fluoroethyl)piperidin-4-yl)-N-(6-(1-methyl-1H-1,2,3-triazol-4-yl)isoquinolin-3-yl)-1H-1,2,3-triazole-4-carboxamide]	642 nM		
1420 nM	> 10000 nM	4 nM	3320 nM	1890 nM			Cc1nnc(C(=O)Nc2cc3cc(-c4cncn4C)ccc3cn2)s1 [Compound 59, 5-Methyl-N-(6-(1-methyl-1H-imidazol-5-yl)isoquinolin-3-yl)-1,3,4-thiadiazole-2-carboxamide]	1420 nM	0%	
1770 nM	> 10000 nM	5 nM	2180 nM	1250 nM			Cn1ccc(C(=O)Nc2cc3cc(-c4cncn4C)ccc3cn2)n1 [Compound 46, 1-Methyl-N-(6-(1-methyl-1H-imidazol-5-yl)isoquinolin-3-yl)-1H-pyrazole-3-carboxamide]	1530 nM	46.1%	
1830 nM	751 nM	4 nM	442 nM	109 nM			Cn1cc(C(=O)Nc2cc3cc(-c4cncn4C)ccc3cn2)cn1 [Compound 40, 1-Methyl-N-(6-(1-methyl-1H-imidazol-5-yl)isoquinolin-3-yl)-1H-pyrazole-4-carboxamide]	> 10000 nM		23.2%
9990 nM	2630 nM	7 nM	273 nM				Cn1cc(-c2ccc3cnc(NC(=O)c4cn(C5CCNCC5)nn4)cc3c2)cn1 [Compound 11, N-(6-(1-Methyl-1H-pyrazol-4-yl)isoquinolin-3-yl)-1-(piperidin-4-yl)-1H-1,2,3-triazole-4-carboxamide]	607 nM		
	1070 nM		113 nM	115 nM	769 nM	16 nM	[2H]C([2H])([2H])n1cc(-c2ccc3cnc(NC(=O)c4coc(C5CCNCC5)n4)cc3c2)cn1 [Compound 16, N-(6-(1-(Methyl-d3)-1H-pyrazol-4-yl)isoquinolin-3-yl)-2-(piperidin-4-yl) oxazole-4-carboxamide]	312 nM		
3240 nM	3690 nM	15 nM	427 nM	107 nM			CN1CCC(c2nc(C(=O)Nc3cc4cc(-c5cnn(C)c5)ccc4cn3)co2)CC1 [Compound 20, N-(6-(1-Methyl-1H-pyrazol-4-yl)isoquinolin-3-yl)-2-(1-methylpiperidin-4-yl)oxazole-4-carboxamide]	2000 nM		
349 nM	437 nM	3 nM	44 nM	33 nM			CC(C)N1CCC(n2cc(C(=O)Nc3cc4cc(-c5cn(C)nn5)ccc4cn3)cn2)CC1 [Compound 32, 1-(1-Isopropylpiperidin-4-yl)-N-(6-(1-methyl-1H-1,2,3-triazol-4-yl)isoquinolin-3-yl)-1H-pyrazole-4-carboxamide]	203 nM		
1330 nM	> 10000 nM	16 nM	1260 nM				Cn1cc(-c2ccc3cnc(NC(=O)c4coc(C5CCN(CCF)CC5)n4)cc3c2)cn1 [Compound 21, 2-(1-(2-Fluoroethyl)piperidin-4-yl)-N-(6-(1-methyl-1H-pyrazol-4-yl)isoquinolin-3-yl)oxazole-4-carboxamide]	9620 nM	27.2%	
